Key:
CDK2 = target: T1, CDK2 (Homo sapiens, UniProt P24941); assay: KdELECT binding assay, CDK2; details: CDK2, Table 8
T1 construct: made in house; host or cells: E. coli BL21-derived host (T7 phage) or HEK-293 ('BEK-293' [sic])
Procedure: Compounds were tested using a KdELECT. Kinase-tagged T7 phage strains were prepared in an E. coli host derived from the BL21 strain. E. coli were grown to log-phase and infected with T7 phage and incubated with shaking at 32° C. until lysis. The lysates were centrifuged and filtered to remove cell debris. The remaining kinases were produced in BEK-293 cells and subsequently tagged with DNA for qPCR detection. Streptavidin-coated magnetic beads were treated with biotinylated small molecule ligands for 30 minutes at room temperature to generate affinity resins for kinase assays. The liganded beads were blocked with excess biotin and washed with blocking buffer (SeaBlock (Pierce), 1% BSA, 0.05% Tween 20, 1 mM DTT) to remove unbound ligand and to reduce non-specific binding. Binding reactions were assembled by combining kinases, liganded affinity beads, and test compounds in 1× binding buffer (20% SeaBlock, 0.17×PBS, 0.05% Tween 20, 6 mM DTT). Test compounds were prepared as 111× stocks in 100% DMSO. Kd values were determined using an 11-point 3-fold compound dilution series with three DMSO control points. All compounds for Kd measurements are distributed by acoustic transfer (non-contact dispensing) in 100% DMSO. The compounds were then diluted directly into the assays such that the final concentration of DMSO was 0.9%. […] The kinase concentration in the eluates was measured by qPCR.

CDK1 = target: T2, CDK1 (Homo sapiens, UniProt P06493); assay: KdELECT binding assay, CDK1; details: CDK1, Table 9
T2 construct: made in house; host or cells: E. coli BL21-derived host (T7 phage) or HEK-293 ('BEK-293' [sic])
T2 sequence (P06493 whole entry): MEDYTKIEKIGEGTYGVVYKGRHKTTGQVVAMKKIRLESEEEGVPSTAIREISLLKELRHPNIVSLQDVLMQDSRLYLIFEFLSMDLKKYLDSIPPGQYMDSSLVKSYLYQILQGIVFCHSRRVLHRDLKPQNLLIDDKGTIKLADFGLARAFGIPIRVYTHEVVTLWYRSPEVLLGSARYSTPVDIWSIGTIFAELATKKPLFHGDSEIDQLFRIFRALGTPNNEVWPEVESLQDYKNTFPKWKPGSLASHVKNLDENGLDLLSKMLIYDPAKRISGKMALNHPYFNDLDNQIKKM
Procedure: Compounds were tested using a KdELECT. Kinase-tagged T7 phage strains were prepared in an E. coli host derived from the BL21 strain. E. coli were grown to log-phase and infected with T7 phage and incubated with shaking at 32° C. until lysis. The lysates were centrifuged and filtered to remove cell debris. The remaining kinases were produced in BEK-293 cells and subsequently tagged with DNA for qPCR detection. Streptavidin-coated magnetic beads were treated with biotinylated small molecule ligands for 30 minutes at room temperature to generate affinity resins for kinase assays. The liganded beads were blocked with excess biotin and washed with blocking buffer (SeaBlock (Pierce), 1% BSA, 0.05% Tween 20, 1 mM DTT) to remove unbound ligand and to reduce non-specific binding. Binding reactions were assembled by combining kinases, liganded affinity beads, and test compounds in 1× binding buffer (20% SeaBlock, 0.17×PBS, 0.05% Tween 20, 6 mM DTT). Test compounds were prepared as 111× stocks in 100% DMSO. Kd values were determined using an 11-point 3-fold compound dilution series with three DMSO control points. All compounds for Kd measurements are distributed by acoustic transfer (non-contact dispensing) in 100% DMSO. The compounds were then diluted directly into the assays such that the final concentration of DMSO was 0.9%. All reactions performed in polypropylene 384-well plate. Each was a final volume of 0.02 mL. The assay plates were incubated at room temperature with shaking for 1 hour and the affinity beads were washed with wash buffer (lx PBS, 0.05% Tween 20). The beads were then re-suspended in elution buffer (lx PBS, 0.05% Tween 20, 0.5 μM nonbiotinylated affinity ligand) and incubated at room temperature with shaking for 30 minutes. The kinase concentration in the eluates was measured by qPCR.

androgen receptor = target: T3, androgen receptor (Homo sapiens, UniProt P10275); assay: Binding affinity to androgen receptor ([3H]methyltrienolone radioligand, cell cytosol); details: Table 6
T3 construct: endogenous in cells; host or cells: unnamed cells (cytosol fraction)
T3 sequence (P10275 1-920): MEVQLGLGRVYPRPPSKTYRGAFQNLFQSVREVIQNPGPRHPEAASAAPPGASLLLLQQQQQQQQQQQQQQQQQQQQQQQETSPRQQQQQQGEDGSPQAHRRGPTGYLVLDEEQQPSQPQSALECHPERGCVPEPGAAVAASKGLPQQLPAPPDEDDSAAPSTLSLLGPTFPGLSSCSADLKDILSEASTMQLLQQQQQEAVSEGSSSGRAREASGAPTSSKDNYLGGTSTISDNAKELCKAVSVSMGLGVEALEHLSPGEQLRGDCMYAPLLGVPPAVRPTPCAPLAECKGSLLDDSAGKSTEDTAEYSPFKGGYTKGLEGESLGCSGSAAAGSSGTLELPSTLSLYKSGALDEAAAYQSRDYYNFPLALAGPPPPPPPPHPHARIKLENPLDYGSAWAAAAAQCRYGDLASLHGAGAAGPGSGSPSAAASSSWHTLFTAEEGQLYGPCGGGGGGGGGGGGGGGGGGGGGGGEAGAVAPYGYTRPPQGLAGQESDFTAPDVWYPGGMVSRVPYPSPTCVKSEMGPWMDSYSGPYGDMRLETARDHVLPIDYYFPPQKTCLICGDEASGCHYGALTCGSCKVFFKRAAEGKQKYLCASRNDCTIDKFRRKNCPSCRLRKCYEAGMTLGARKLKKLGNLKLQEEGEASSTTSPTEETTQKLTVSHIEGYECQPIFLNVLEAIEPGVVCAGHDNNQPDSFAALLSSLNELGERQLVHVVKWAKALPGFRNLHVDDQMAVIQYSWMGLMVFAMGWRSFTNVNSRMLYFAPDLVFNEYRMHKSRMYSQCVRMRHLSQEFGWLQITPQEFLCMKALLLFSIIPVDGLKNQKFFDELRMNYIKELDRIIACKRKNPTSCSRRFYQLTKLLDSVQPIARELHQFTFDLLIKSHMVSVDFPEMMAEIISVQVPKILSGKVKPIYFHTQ
In short: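 Cell cytosol incubated 24 h at 4 °C with 1 nM [3H]methyltrienolone in Hepes-Tris pH 7.4 buffer containing molybdate, DTT, 5 μM triamcinolone acetonide and glycerol; nonspecific binding with 1 μM testosterone. Filtration and scintillation counting; reported as % inhibition of specific binding.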

| Kd (CDK2) [nM] | Kd (CDK1) [nM] | Kd (androgen receptor) [nM] | Compound |
| --- | --- | --- | --- |
| > 2500 | > 2500 | < 50 | CCc1cnn2c(NCc3ccc(OCCOCCOCCOC4CCN(c5ncc(C(=O)N[C@H]6C(C)(C)[C@H](Oc7ccc(C#N)c(Cl)c7)C6(C)C)cn5)CC4)nc3)cc(N3CCCC[C@H]3CCO)nc12 [Compound I-8] |
|  | > 2500 | < 50 | CCc1cnn2c(NCc3ccc(COCCN4CCN(CC5CCN(c6ncc(C(=O)N[C@H]7C(C)(C)[C@H](Oc8ccc(C#N)c(Cl)c8)C7(C)C)cn6)CC5)CC4)nc3)cc(N3CCCC[C@H]3CCO)nc12 [Compound I-42] |
|  |  | < 50 | CCc1cnn2c(NCc3ccc(OCCN4CCN(CC5CCN(c6ncc(C(=O)N[C@H]7C(C)(C)[C@H](Oc8ccc(C#N)c(Cl)c8)C7(C)C)cn6)CC5)CC4)nc3)cc(-c3ccccc3)nc12 [Compound I-47, N-((1r,3r)-3-(3-chloro-4-cyanophenoxy)-2,2,4,4-tetramethylcyclobutyl)-2-(4-((4-(2-((5-(((3-ethyl-5-phenylpyrazolo[1,5-a]pyrimidin-7-yl)amino)methyl)pyridin-2-yl)oxy)ethyl)piperazin-1-yl)methyl)piperidin-1-yl)pyrimidine-5-carboxamide] |
|  |  | < 50 | CCc1cnn2c(NCc3ccc(N4CC(OCCN5CC6CN(c7ncc(C(=O)N[C@H]8C(C)(C)[C@H](Oc9ccc(C#N)c(Cl)c9)C8(C)C)cn7)CC6C5)C4)nc3)cc(N3CCCC[C@H]3CCO)nc12 (stereo partly shown) [Compound I-72] |
|  |  | < 50 | CC1(C)[C@H](NC(=O)c2cnc(N3CCC(OCCNS(=O)(=O)c4ccc(Nc5ncc(Br)c(Nc6cccc(F)c6C(N)=O)n5)cc4)CC3)nc2)C(C)(C)[C@H]1Oc1ccc(C#N)c(Cl)c1 [Compound I-13, 2-(4-(2-((4-((5-bromo-4-((2-carbamoyl-3-fluorophenyl)amino)pyrimidin-2-yl)amino)phenyl)sulfonamido)ethoxy)piperidin-1-yl)-N-((1 r,3r)-3-(3-chloro-4-cyanophenoxy)-2,2,4,4-tetramethylcyclobutyl)pyrimidine-5-carboxamide] |
|  | > 2500 |  | CCc1cnn2c(NCc3ccc(OCC4CCN(CC5CCN(c6ncc(C(=O)N[C@H]7C(C)(C)[C@H](Oc8ccc(C#N)c(Cl)c8)C7(C)C)cn6)CC5)CC4)nc3)cc(N3CCCC[C@H]3CCO)nc12 [Compound I-51] |
|  |  | < 50 | CCc1cnn2c(NCc3ccc(OCCCCOCCOC4CCN(c5ncc(C(=O)N[C@H]6C(C)(C)[C@H](Oc7ccc(C#N)c(Cl)c7)C6(C)C)cn5)CC4)nc3)cc(N3CCCC[C@H]3CCO)nc12 [Compound I-34] |
|  |  | < 50 | CCc1cnn2c(NCc3ccc(=O)n(CCOCCOCCOCCOCCOCCOCCN(C)c4ncc(C(=O)N[C@H]5C(C)(C)[C@H](Oc6ccc(C#N)c(Cl)c6)C5(C)C)cn4)c3)cc(N3CCCC[C@H]3CCO)nc12 [Compound I-4, N-((1r,3r)-3-(3-chloro-4-cyanophenoxy)-2,2,4,4-tetramethylcyclobutyl)-2-((20-(5-(((3-ethyl-5-((S)-2-(2-hydroxyethyl)piperidin-1-yl)pyrazolo[1,5-a]pyrimidin-7-yl)amino)methyl)-2-oxopyridin-1(2H)-yl)-3,6,9,12,15,18-hexaoxaicosyl)(methyl)amino)pyrimidine-5-carboxamide] |
|  |  | 50 to 500 | CCc1cnn2c(NCc3ccc(OCCOCCOCCOC4CCN(c5ccc(C(=O)N[C@H]6C(C)(C)[C@H](Oc7ccc(C#N)c(Cl)c7)C6(C)C)nn5)CC4)nc3)cc(N3CCCC[C@H]3CCO)nc12 [Compound I-44, N-((1r,3r)-3-(3-chloro-4-cyanophenoxy)-2,2,4,4-tetramethylcyclobutyl)-6-(4-(2-(2-(2-((5-(((3-ethyl-5-((S)-2-(2-hydroxyethyl)piperidin-1-yl)pyrazolo[1,5-a]pyrimidin-7-yl)amino)methyl)pyridin-2-yl)oxy)ethoxy)ethoxy)ethoxy)piperidin-1-yl)pyridazine-3-carboxamide] |
|  | > 2500 |  | CCc1cnn2c(NCc3ccc(OCCN4CCN(CC5CCN(c6ncc(C(=O)N[C@H]7C(C)(C)[C@H](Oc8ccc(C#N)c(Cl)c8)C7(C)C)cn6)CC5)CC4)nc3)cc(N3CCCC[C@H]3CCO)nc12 [Compound I-41] |

Reference: patent publication US20260159520A1, “HETEROBIFUNCTIONAL COMPOUNDS AND METHODS OF TREATING DISEASE” (Halda Therapeutics OpCo, Inc., priority 2022, published 2026)
